The subject of data set [1] is primary uterine smooth muscle cells (UtSMC). Description: IL-6 production in UtSMC stimulated with LPS. It is filed as cell-based. To be noted: for IL-6 / IL-6, % of positive control: UtSMC pre-treated, then LPS; for IL-6: LPS positive control 121.7 pg/mL; for IL-6, % of positive control: relative to DMSO+LPS positive control. On the procedure:
In this Example, the effect of progesterone metabolites 16αOHP and 6β-OHP on inflammation in primary uterine smooth muscle cells (UtSMC) was analyzed.
UtSMC were cultured in the presence of DMSO and one of the following: (1) progesterone; (2) […]; (3) 6β-OHP; and (4) 16αOHP. Lipopolysaccharide (LPS) was then added to the culture to stimulate an immune inflammatory reaction. Experiments were performed in triplicate.

The subject of another data set is NF-κB pathway. The data set is described as follows: NF-κB pathway activation in THP-1 monocytes stimulated with LPS (imaging flow cytometry). The format is cell-based. To be noted: THP-1 monocytes pre-treated, then LPS.
For data set [2], the system named is uterine horns from wild-type (WT) C57BL/6J female mice. Description: Spontaneous uterine contractility, isolated uterine horns in tissue organ bath. To be noted: for pIC50: spontaneous, dose-response 10^-9 to 10^-6 mol/L; for Contractile Frequency/10 min (% of baseline), Drug / Contractile Force (% of baseline), Drug: spontaneous contractility; for Contractile Force (% of baseline), Drug: AUC as % of baseline AUC. On the procedure: (§1) FIGS. 2A & 2B are representative contraction tracings of uterine horns from wild-type (WT) C57BL/6J female mice. FIG. 2A: Uterine horns were isolated and suspended in a tissue organ bath at 0.5 g of tension. Once equilibrated, selected progestin treatments were added in successively increasing concentrations from 10^−9 to 10^−6 mol/L in 20-minute intervals to assess effect on spontaneous contractile activity (progesterone treatment, bottom panel). The contralateral horn from each mouse was treated with a matching ethanol vehicle (top panel). All contraction responses were measured and reported as the area under the contraction curve (AUC), normalized to the AUC of the spontaneous contraction pattern that preceded treatment. FIG. 2B: Treatment effect on oxytocin-induced contractility was assessed by exposing horns to selected progestin treatments (10^−6 mol/L), followed by increasing doses of oxytocin (Oxt) (1, 10, 50, and 100 nmol/L) in 10-minute intervals (bottom panel). The contralateral horn from each mouse was treated with a matching ethanol vehicle (top panel). Contraction responses were measured and reported as described above.
(§2) All progestins were solubilized in ethanol and then diluted in phosphate-buffered saline to the desired molar concentration. […] The concentration of ethanol decreased parallel to the progestin dose in order to minimize the effect of the solvent on uterine contractility.
(§3) Virgin nonpregnant wild-type C57BL/6J female mice (Jackson Labs, Bar Harbor, Me.) were obtained at 10 to 12 weeks of age and fed a standard diet. Mice were euthanized by an IACUC-approved protocol, and each of the 2 uterine horns were removed. A 1 cm×0.5 cm segment of the uterine horn was suspended using 4-0 silk suture between a stainless steel wire hook connected to a Radnoti force displacement transducer (Radnoti LLC, Monrovia, Calif.) and a glass hook inside an organ bath that served as an anchor. The bath was filled with modified Krebs buffer (118 mmol/L NaCl, […], 1.2 mmol/L MgSO4, 1.2 mmol/L KH2PO4, 2.5 mmol/L CaCl2, 25 mmol/L NaHCO3, and 11 mmol/L glucose, pH 7.4), maintained at 37° C., and constantly bubbled with a premixed gas consisting of 20% O2, 5% CO2, and balance N2. Uterine horns were equilibrated at 0.5 g of tension for approximately 30 minutes until a spontaneous contraction pattern was established.
A total of 60 mice were utilized to assess the effect of the selected treatments on uterine contractility, 30 in the spontaneous contraction group and 30 in the oxytocin-induced group. Six mice were in each progestin treatment group during both spontaneous and oxytocin-induced contractility arms of the study. To determine the nongenomic (acute) effect of the progestin treatments on spontaneous uterine contractility, a segment of uterine horn from each mouse was exposed to a single progestin (progesterone, 17-OHPC, 2α-OHP, 6β-OHP, or 16αOHP), while a segment of the contralateral horn was exposed to a matching dose of ethanol vehicle. After a spontaneous contraction pattern was achieved, the progestin treatment was added to the tissue organ bath in successively increasing concentrations from 10^−9 to 10^−6 mol/L in 20-minute intervals. At the end of the treatments, the tissue was washed in modified Krebs buffer and then exposed to KCl (60 mmol/L) to elicit a tetanic response and confirm tissue viability.
Uterine contraction responses were recorded using LabChart Pro (ADInstruments, Colorado Springs, Colo.) software as the force generated with time (g×min). Baseline uterine contractility was calculated as the area under the curve (AUC) for a 10-minute period of spontaneous contractions. The AUC of the uterine contractile response to each treatment (progestin or oxytocin) was determined and expressed as a percentage of the baseline AUC observed during spontaneous contraction. […]

Data set [3] shares this test system. The data set is described as follows: Oxytocin-induced uterine contractility after progestin pretreatment, isolated uterine horns in tissue organ bath. The settings on record: for pEC50: oxytocin-induced dose-response (1-100 nmol/L oxytocin) after progestin pretreatment 10^-6 mol/L; for Contractile Force (% of baseline), Drug / Contractile Frequency/10 min (% of baseline), Drug: oxytocin-induced, progestin pretreatment 10^-6 mol/L. On the procedure: as §1, §2, §3
To determine the nongenomic effect of progestin treatments on oxytocin-induced uterine contractility, the uterine horns were pretreated with a single progestin at 10^−6 mol/L for 10 minutes after a spontaneous contractile pattern was established. The contralateral horn from the same mouse was treated with ethanol vehicle at a matching concentration. The uterine horns were subsequently exposed to increasing concentrations of oxytocin (1, 10, 50, and 100 nmol/L) in 10-minute intervals. At the end of the oxytocin treatments, the tissue was washed and then exposed to KCl (60 mmol/L) to elicit a tetanic response and confirm tissue viability.
Uterine contraction responses were recorded using LabChart Pro (ADInstruments, Colorado Springs, Colo.) software as the force generated with time (g×min). Baseline uterine contractility was calculated as the area under the curve (AUC) for a 10-minute period of spontaneous contractions. The AUC of the uterine contractile response to each treatment (progestin or oxytocin) was determined and expressed as a percentage of the baseline AUC observed during spontaneous contraction. […] To account for repeated measurements for individual muscle strips at increasing treatment doses, a repeated measures 2-way analysis of variance model was used to compare the dose-response curves. Each dose-response curve was fit by nonlinear regression and compared using an extra sum of squares F test. The mean max-fit response was compared between each progestin and vehicle control to determine maximum treatment efficacy. […]

Data set [4] has as its system monocyte-derived macrophage populations. Description: Macrophage cell surface marker expression of monocyte-derived macrophages. The format is cell-based. To be noted: relative to DMSO treated control. An excerpt: FIG. 7 is a graph depicting characterization of monocyte-derived macrophage populations after pre-treatment with progesterone and progesterone metabolites. Expression of macrophage cell surface markers is illustrated relative to DMSO treated control.
In this Example, monocyte-derived macrophage populations after pre-treatment with progesterone and progesterone metabolites were characterized.
Expression of macrophage cell surface markers is illustrated relative to DMSO treated control (see FIG. 7).

In another data set the test system is THP-1 monocyte cells. Description: Flow cytometry of monocyte-derived macrophage population (PMA differentiation). The format is cell-based. The settings on record: THP-1 pre-treated 24 hours, then PMA. On the procedure:
FIGS. 6A-6C depict flow cytometry of a monocyte-derived macrophage population pre-treated with progesterone metabolites. THP-1 monocyte cells were pre-treated with progesterone metabolites 16αOHP and 6β-OHP for 24 hours, then stimulated to differentiate to macrophages by exposure to PMA.
THP-1 monocyte cells were pre-treated with progesterone metabolites 16αOHP and 6β-OHP for 24 hours, then stimulated to differentiate to macrophages by exposure to phorbol 12-myristate 13-acetate (PMA).

Data set [5] has as its system primary uterine smooth muscle cells (UtSMC). Description: IL-6 production in UtSMC stimulated with TNF-α. It is filed as cell-based. The text has this: FIGS. 5A & 5B are graphs depicting the effect of progesterone metabolites 16αOHP and 6β-OHP on inflammation in primary uterine smooth muscle cells (UtSMC).
The next data set deals with THP-1 monocytes. The data set is described as follows: IL-6 production in THP-1 monocytes stimulated with LPS. It is filed as cell-based. The settings on record: THP-1 monocytes pretreated, then LPS; versus positive control. On the procedure: FIG. 9 is a graph depicting the effect of progesterone and progesterone metabolites (16αOHP and 6β-OHP) on inflammation in THP-1 monocytes stimulated with LPS.
In this Example, the effect of progesterone and progesterone metabolites (16αOHP and 6β-OHP) on inflammation in THP-1 monocytes stimulated with LPS was analyzed.

For the next data set, the system named is CYP3A. The data set is described as follows: CYP3A production of 16α-OHP and 6β-OHP in human liver microsomes (HLMs). To be noted: p<0.01. (In general: Microsomes from liver hold many membrane-bound enzymes, among them those of drug oxidation.)
[6] abbreviates: maximal oxytocin dose (100 nmol/L).
[7] abbreviates: maximal oxytocin dose (100 nmol/L), listed as progesterone.

The results in this text go back to patent publication US10231979B2, “Modulation of inflammation using progesterone metabolites” (Indiana University Research and Technology Corporation, priority 2015, dated 2019).

pEC50, pIC50: −log10 of the molar value. Like-named read-outs stand apart in the source and are kept apart here.

One may read the pIC50 as −log10 of the IC50, conventionally taken in molar units. For orientation: pEC50 means the EC50 on a negative log10 scale, so that one unit is a factor of ten.

As to `CC(=O)[C@H]1CC[C@H]2[C@@H]3CCC4=CC(=O)CC[C@]4(C)[C@H]3CC[C@]12C` [Progesterone], the IL-6 in [1] was 100.3 pg/mL. Moreover, in data set [1], the “IL-6, % of positive control” value was 83%. Further, the “Median similarity score (NF-κB migration into the nucleus) (in words)” value with NF-κB pathway was “did not affect the median similarity score”. Moreover, the pIC50 was 9.51 in data set [2] (Mus musculus, read-out: Contractile Force IC50) and 8.18 in [2] (Mus musculus, read-out: Contractile Frequency IC50). In data set [2] (maximal treatment dose), the “Spontaneous uterine contraction frequency compared to vehicle control (in words)” value is “not significantly decreased”. Besides, the “Contractile Frequency/10 min (% of baseline), Drug” value in [2] (maximal treatment dose) is 48% of baseline; in data set [3] (setting [6]), 141% of baseline; in data set [3] (setting [7]), 141 % of baseline. The “Contractile Force (% of baseline), Drug” value was 43.9% of baseline in [2] (maximal treatment dose); 43.9 % of baseline in data set [2] (maximal treatment dose, listed as progesterone); 266.8% of baseline in [3] (setting [6]); 266.8 % of baseline in [3] (setting [7]). Besides, the negative-log EC50 (pEC50) in data set [3] (Mus musculus, read-out: Contractile Force EC50) was 8.01; in data set [3] (Mus musculus, read-out: Contractile Frequency EC50) it was 7.95. Further, in data set [3] (setting [6]), the “Oxytocin-induced contraction frequency compared to control (in words)” value is “decreased significantly”. Moreover, in data set [4], the “Expression of cell surface markers involved in immune response (CD14, TLR4, and HLA-DR) (in words)” value is recorded as “decreased expression”.
`CC(=O)[C@H]1[C@H](O)C[C@H]2[C@@H]3CCC4=CC(=O)CC[C@]4(C)[C@H]3CC[C@@]21C` [16α-OHP, 4-pregnen-16α-ol-3,20-dione]: in [1], the IL-6 is listed as 98.7 pg/mL and the “IL-6, % of positive control” value amounted to 83%. Besides, the “IL-6 production (in words)” value in data set [1] (UtSMC stimulated with LPS) is given as “reduced IL-6 production”. Also, the “Macrophage population/phenotype compared to DMSO treated control (in words)” value in the data set on THP-1 monocyte cells is “decrease in the macrophage population/phenotype”. In addition, the “IL-6 production (in words)” value in data set [5] is recorded as “decreased IL-6 production”. Also, in [2] (maximal treatment dose), the “Spontaneous contractile force compared with the vehicle control (in words)” value is “No significant difference”; the “Spontaneous uterine contraction frequency compared to vehicle control (in words)” value was “not significantly decreased”; the “Contractile Frequency/10 min (% of baseline), Drug” value is reported as 57% of baseline; the “Contractile Force (% of baseline), Drug” value is 37.2% of baseline. In addition, the negative logarithm of the IC50 (pIC50) in [2] (read-out: Contractile Force IC50) was 9.11. Besides, in data set [2] (read-out: Contractile Frequency IC50), the negative logarithm of the IC50 (pIC50) was 9.13. Also, the “Effect on oxytocin-induced uterine contractility (in words)” value in data set [3] is listed as “decreased”. Further, in data set [3] (setting [6]), the “Oxytocin-induced contractile force compared to vehicle control (in words)” value is recorded as “no differences”; the “Oxytocin-induced contraction frequency compared to control (in words)” value is listed as “decreased significantly”; the “Contractile Force (% of baseline), Drug” value is 301.6% of baseline; the “Contractile Frequency/10 min (% of baseline), Drug” value is listed as 216.9% of baseline. The negative logarithm of the EC50 (pEC50) in data set [3] (read-out: Contractile Force EC50) was 6.85. Moreover, in [3] (read-out: Contractile Frequency EC50), the pEC50 was 8.07. Moreover, the “Contractile Frequency/10 min (% of baseline), Drug” value in data set [3] (maximal oxytocin dose (100 nmol/L), listed as 16αOHP) is 217 % of baseline. The “Inflammatory response (IL-6 production) (in words)” value in the data set with THP-1 monocytes is recorded as “significantly decreased IL-6 production”.
With `CC(=O)N1CCN(c2ccc(OCC3COC(Cn4ccnc4)(c4ccc(Cl)cc4Cl)O3)cc2)CC1` (centres unmarked) [ketoconazole], in the data set on CYP3A, the “Effect on CYP3A production of 16α-OHP and 6β-OHP” value was “inhibited”.
